For 37 compounds, IC50 results are on record in US20240002388A1, “PYRIMIDINONE COMPOUNDS AND USES THEREOF” (HUTCHISON MEDIPHARMA LIMITED, priority 2020, published 2024).

The target of the test is RIPK1 recombination protein (Homo sapiens (Human), UniProt Q13546). As to the kind of experiment: RIPK1 kinase activity assay (ADP-Glo). To be noted: RIPK1 kinase activity, ADP-Glo, 10 μM ATP. The format is biochemical. The procedure: RIPK1 recombination protein: synthesized by Shanghai Medicilon Inc. under the commission by Hutchison MediPharma Limited (50 g of cell pellet was resuspended in 250 mL of lysis buffer (50 mM Tris, pH 7.5, 250 mM NaCl, 1 mM DTT, protease inhibitor 1:50), the cells were ultrasonically lysed using a sonicator (the power set to 4) on ice for 3×30 minutes; then centrifugation was carried out at 4° C., at 15,000 g for 30 minutes to clarify the suspension, the soluble pellet was resuspended into 10 mL of glutathione agarose, and incubated at 4° C. for 2 hours; then the beads were loaded into the column and washed with lysis buffer (no protease inhibitors) to baseline, and eluted with 20 mM of reduced glutathione (50 mM Tris, pH 8). The fractions identified by SDS-PAGE as containing the protein of interest were collected (10 mL of total volume), concentrated to about 5 mL and loaded into 300 mL superdex75 column (GE Healthcare) equilibrated with buffer (50 mM Tris, pH 7.5, 150 mM NaCl, 1 mM DTT, 10% glycerol, pH 7.5). RIP1 protein was eluted as a dimer from the superdex75 column. The protein concentration was determined by the Bradford assay using BSA as the standard. The yield was 12.5 mg at 0.63 mg/mL. The protein was aliquoted and frozen at −80° C. for later use.
Chain of RIPK1 recombination protein (Q13546 other isoform, or with tags, fused parts or gaps): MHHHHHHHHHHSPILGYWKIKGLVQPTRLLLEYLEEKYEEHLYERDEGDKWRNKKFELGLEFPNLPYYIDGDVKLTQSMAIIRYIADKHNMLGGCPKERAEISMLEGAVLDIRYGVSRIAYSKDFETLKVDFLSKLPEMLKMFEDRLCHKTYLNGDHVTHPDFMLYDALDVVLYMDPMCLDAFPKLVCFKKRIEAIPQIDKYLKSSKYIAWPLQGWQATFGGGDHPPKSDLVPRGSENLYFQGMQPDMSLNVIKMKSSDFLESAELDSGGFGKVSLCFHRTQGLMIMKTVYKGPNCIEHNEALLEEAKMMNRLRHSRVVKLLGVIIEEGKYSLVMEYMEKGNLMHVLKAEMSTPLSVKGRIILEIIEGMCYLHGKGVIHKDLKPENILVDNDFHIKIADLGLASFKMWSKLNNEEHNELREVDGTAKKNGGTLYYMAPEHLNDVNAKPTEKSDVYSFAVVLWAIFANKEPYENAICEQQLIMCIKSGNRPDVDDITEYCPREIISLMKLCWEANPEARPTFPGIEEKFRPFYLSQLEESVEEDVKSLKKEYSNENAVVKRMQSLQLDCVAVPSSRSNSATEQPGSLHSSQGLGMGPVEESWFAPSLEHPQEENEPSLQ
ADP-Glo Kinase kit can be used to measure ADP level in kinase activity assay so as to distinguish the inhibitory effects of different compounds on RIPK1 kinase activity. The ADP-Glo assay was usually divided into three steps. Firstly, the kinase converted ATP to ADP and phosphorylated the substrate at the same time; secondly, ATP digestion reagent was added to degrade all ATP in the reaction system; finally, a detection reagent was added to reduce ADP to ATP, and energy from ATP was transferred to […] which thus emitting a chemical luminescence that can be detected. Assay procedure can refer to manufacture's technical manual.
(2) Reagent Preparation: • 1.33× kinase buffer: 5× kinase buffer stock (250 mM of NaCl, 150 mM of MgCl2, 2.5 mg/ml BSA (bovine serum albumin), 0.1% CHAPS (3-[(3-cholamidopropyl)-dimethyl-ammonio]-1-propane sulfonate), and 5 mM of dithiothreitol) was diluted with water to 1.33× kinase buffer; • RIPK1 enzyme solution: the kinase was dissolved in 1.33× kinase buffer to make 40 nM as the final working concentration; • ATP solution: 10 mM ATP stock solution in water was dissolved in 1.33× kinase buffer to make 10 μM as the final working concentration; • 4× compound preparation: the compound was diluted in a 3-fold gradient, and finally 4% DMSO aqueous solution containing different concentrations of the compound was obtained. The final concentrations of the test compound were 10, 3.33, 1.11, 0.37, 0.12, 0.04, 0.014, and 0.005 μM.
The assay set up two control groups, one was 100% inhibition group (no enzyme treatment), another was 0% inhibition group (no inhibitor treatment), each control group contained 8 replicate wells. 2.5 μl of serially diluted compound was added to each well of a 384-well plate, with double replicate wells, and 4% DMSO solution was added to control wells. Then 5 μl of RIPK1 enzyme solution was added to each well except 100% inhibition control, 5 ul of buffer was added to 100% inhibition control, after that, 2.5 μl of ATP solution was added to all wells, the plate was vibrated at 1000 rpm for 30 seconds to perform transient centrifuge; finally the 384-well assay plate was put in the shaking incubator, and incubated at room temperature for 3 hours. After the enzymatic reaction was completed, 5 μl of ATP depletion reagent was added to each well, the mixture was centrifuged transiently, then the 384-well assay plate was put in the shaking incubator, and incubated at room temperature for 1 hour. 5 μl of ADP detection reagent was added to each well, and the mixture was centrifuged transiently, and incubated at room temperature for 0.5 hour. […]
For orientation: ADP-Glo first removes unused ATP, then detects ADP through luciferase.

As usually defined, the IC50 is the midpoint of a concentration-inhibition curve. Regarding `CC(C)n1cncc(-c2ccc(C3(NC(=O)c4ncc5cnn(C(C)C6CC6)c5n4)CC3)cc2)c1=O` (racemic) [Compound 59, 1-(1-cyclopropylethyl)-N-(1-(4-(1-i-propyl-6-oxo-1,6-dihydropyrimidin-5-yl)phenyl)cyclopropyl)-1H-pyrazolo[3,4-d]pyrimidine-6-carboxamide], the IC50 came out at 26 nM.

For `CC(C)n1ncc2cnc(C(=O)NC3(c4ccc(-c5cncn([C@H](C)C(F)(F)F)c5=O)cc4F)CC3)nc21` (stereo in doubt) [Compound 46], the IC50 was determined as 35 nM.

For the compound `CC(C)n1ncc2cnc(C(=O)NC3(c4ccc(-c5cncn([C@@H](C)C(F)(F)F)c5=O)cc4F)CC3)nc21` (stereo in doubt) [Compound 47], the IC50 turned out to be 29 nM.

Consider `CC(C)n1ncc2cnc(C(=O)NC3(c4ccc(-c5cncn(C6CCOC6)c5=O)cc4)CC3)nc21` (stereo in doubt) [Compound 80, (R)-1-i-propyl-N-(1-(4-(6-oxo-1-(tetrahydrofuran-3-yl)-1,6-dihydropyrimidin-5-yl)phenyl)cyclopropyl)-1H-pyrazolo[3,4-d]pyrimidine-6-carboxamide], for which the IC50 came out at 42 nM.

With `CC(C)n1ncc2cnc(C(=O)NC3(c4ccc(-c5cncn(C6CCOC6)c5=O)cc4)CC3)nc21` (stereo in doubt) [Compound 81, (S)-1-i-propyl-N-(1-(4-(6-oxo-1-(tetrahydrofuran-3-yl)-1,6-dihydropyrimidin-5-yl)phenyl)cyclopropyl)-1H-pyrazolo[3,4-d]pyrimidine-6-carboxamide], the IC50 amounted to 39 nM.

As to `CC(C#N)n1cncc(-c2ccc(C3(NC(=O)c4ncc5cnn(C(C)C)c5n4)CC3)cc2)c1=O` (stereo in doubt) [Compound 82, (R)—N-(1-(4-(1-(1-cyanoethyl)-6-oxo-1,6-dihydropyrimidin-5-yl)phenyl)cyclopropyl)-1-i-propyl-1H-pyrazolo[3,4-d]pyrimidine-6-carboxamide], the IC50 amounted to 51 nM.

Take `CC(C#N)n1cncc(-c2ccc(C3(NC(=O)c4ncc5cnn(C(C)C)c5n4)CC3)cc2)c1=O` (stereo in doubt) [Compound 83, (S)—N-(1-(4-(1-(1-cyanoethyl)-6-oxo-1,6-dihydropyrimidin-5-yl)phenyl)cyclopropyl)-1-i-propyl-1H-pyrazolo[3,4-d]pyrimidine-6-carboxamide]: the IC50 worked out at 47 nM.

Regarding `CC(C)n1ncc2cnc(C(=O)NC3(c4ccc(-c5cncn(C)c5=O)cc4)CC3)nc21` [Compound 1, 1-isopropyl-N-(1-(4-(1-methyl-6-oxo-1,6-dihydropyrimidin-5-yl)phenyl)cyclopropyl)-1H-pyrazolo[3,4-d]pyrimidine-6-carboxamide], the IC50 was 28 nM.

Take `CC(C)n1ncc2cnc(C(=O)NC3(c4ccc(-c5cncn(C)c5=O)cn4)CC3)nc21` [Compound 2]: the IC50 worked out at 63 nM.

`Cn1cncc(-c2ccc(C3(NC(=O)c4nnc(Cc5ccccc5)[nH]4)CC3)cc2)c1=O` [Compound 3]: the IC50 amounted to 35 nM.

Turning to `Cn1cncc(-c2ccc(C3(NC(=O)c4ncc5cnn(-c6ccccc6)c5n4)CC3)cc2)c1=O` [Compound 4], the IC50 was 26 nM.

Consider `Cn1cncc(-c2ccc(C3(NC(=O)c4cc(Cc5ccccc5)on4)CC3)cc2)c1=O` [Compound 5], for which the IC50 amounted to 57 nM.

In the case of `CC(C)Cc1nc(C(=O)NC2(c3ccc(-c4cncn(C)c4=O)cc3)CC2)ncc1Cl` [Compound 6], the IC50 is 56 nM.

On to `Cn1cncc(-c2ccc(C3(NC(=O)c4ncn(Cc5ccccc5)n4)CC3)cc2)c1=O` [Compound 8], for which the IC50 was 22 nM.

On to `Cn1cncc(-c2ccc(C3(NC(=O)c4noc(Cc5ccccc5)n4)CC3)cc2)c1=O` [Compound 9], for which the IC50 was 37 nM.

Regarding `Cn1cncc(-c2ccc(C3(NC(=O)c4ncc(Cc5ccccc5)o4)CC3)cc2)c1=O` [Compound 10], the IC50 stood at 26 nM.

As for `Cn1cncc(-c2ccc(C3(NC(=O)c4nnc(Cc5ccccc5)o4)CC3)cc2)c1=O` [Compound 11], the IC50 came to 38 nM.

For `CC(C)n1ncc2cnc(C(=O)NC3(c4ccc(-c5cncn(C6CC6)c5=O)cc4)CC3)nc21` [Compound 12], the IC50 was determined as 9 nM.

For `CC(C)n1cncc(-c2ccc(C3(NC(=O)c4nnc(Cc5ccccc5)o4)CC3)cc2)c1=O` [Compound 13], the IC50 came out at 22 nM.

As for `CC(C)n1cncc(-c2ccc(C3(NC(=O)c4nc5n(n4)[C@@H](c4ccccc4)CC5)CC3)cc2)c1=O` [Compound 15], the IC50 was 30 nM.

As to `CC(C)n1cncc(-c2ccc(C3(NC(=O)c4nc5n(n4)[C@H](c4ccccc4)CC5)CC3)cc2)c1=O` [Compound 16], the 50% inhibitory concentration (IC50) came to 25 nM.

`CC(C)n1cncc(-c2ccc(C3(NC(=O)c4ncn(Cc5ccccc5)n4)CC3)cc2)c1=O` [Compound 17]: the IC50 was 15 nM.

Regarding `Cn1cncc(-c2ccc(C3(NC(=O)c4nnc(Cc5c(F)cccc5F)[nH]4)CC3)cc2)c1=O` [Compound 18], the IC50 turned out to be 38 nM.

For `CC(C)n1cncc(-c2ccc(C3(NC(=O)c4ncc5cnn(-c6ccccc6)c5n4)CC3)cc2)c1=O` [Compound 19], the IC50 came to 71 nM.

Consider `CC(C)Cc1nc(C(=O)NC2(c3ccc(-c4cncn(C(C)C)c4=O)cc3)CC2)ncc1Cl` [Compound 22], for which the IC50 was found to be 55 nM.

As for `CC(C)n1ncc2cnc(C(=O)NC3(c4ccc(-c5cncn(C)c5=O)c(F)c4)CC3)nc21` [Compound 23, N-(1-(3-fluoro-4-(1-methyl-6-oxo-1,6-dihydropyrimidin-5-yl)phenyl)cyclopropyl)-1-isopropyl-1H-pyrazolo[3,4-d]pyrimidine-6-carboxamide], the IC50 is 49 nM.

Consider `CC(C)n1ncc2cnc(C(=O)NC3(c4ccc(-c5cncn(C)c5=O)c(Cl)c4)CC3)nc21` [Compound 25], for which the IC50 is 53 nM.

`CC(C)n1ncc2cnc(C(=O)NC3(c4ccc(-c5cncn(C)c5=O)cc4F)CC3)nc21` [Compound 26]: the IC50 is 22 nM.

As to `CC(C)n1ncc2cnc(C(=O)NC3(c4ccc(-c5cncn(C)c5=O)cc4)CC3)cc21` [Compound 28, 1-isopropyl-N-(1-(4-(1-methyl-6-oxo-1,6-dihydropyrimidin-5-yl)phenyl)cyclopropyl)-1H-pyrazolo[4,3-c]pyridine-6-carboxamide], the IC50 turned out to be 95 nM.

With `CC(C)n1cncc(-c2ccc(C3(NC(=O)c4ncc5cnn(C(C)C)c5n4)CC3)cc2)c1=O` [Compound 29, 1-isopropyl-N-(1-(4-(1-isopropyl-6-oxo-1,6-dihydropyrimidin-5-yl)phenyl)cyclopropyl)-1H-pyrazolo[3,4-d]pyrimidine-6-carboxamide], the IC50 amounted to 19 nM.

For the compound `CC(C)n1ncc2cnc(C(=O)NC3(c4ccc(-c5cnc(N)n(C)c5=O)cc4)CC3)nc21` [Compound 30], the IC50 was found to be 35 nM.

Take `CC(C)n1cncc(-c2ccc(C3(NC(=O)c4ncc5cnn(C(C)C)c5n4)CC3)cc2Cl)c1=O` [Compound 33]: the half-inhibitory concentration (IC50) is 59 nM.

In the case of `CC(C)n1cncc(-c2ccc(C3(NC(=O)c4ncc5cnn(C(C)C)c5n4)CC3)c(F)c2)c1=O` [Compound 34], the IC50 worked out at 65 nM.

In the case of `CC(C)n1cncc(-c2ccc(C3(NC(=O)c4ncc5cnn(C(C)C)c5n4)CC3)cc2F)c1=O` [Compound 35], the IC50 is 47 nM.

`CC(C)n1ncc2cnc(C(=O)NC3(c4ccc(-c5cncn(CC6CC6)c5=O)cc4)CC3)nc21` [Compound 36]: the IC50 came out at 42 nM.

As for `CCn1cncc(-c2ccc(C3(NC(=O)c4ncc5cnn(C(C)C)c5n4)CC3)cc2)c1=O` [Compound 37], the IC50 came out at 41 nM.

As for `CC(C)n1ncc2cnc(C(=O)NC3(c4ccc(-c5cncn(CC(F)(F)F)c5=O)cc4)CC3)nc21` [Compound 38], the IC50 is 48 nM.
